Laboratory results: patent publication EP4467141A1, “PYRAZOLO-QUINOLINES AS SELECTIVE INHIBITORS OF GENOTOXIC STRESS-INDUCED IKK/NF- KB PATHWAYS FOR CANCER THERAPY” (Max-Delbrück-Centrum für Molekulare Medizin in der …, priority 2023, dated 2024)

Experiments:
Test in all cases: Kinase panel study
Format in all cases: biochemical
Settings in all cases: read-out: Percentage of inhibition; for inhibition at 1 µM: 1000nM; for inhibition at 10 µM: 10000nM
[1] = target: T1, EPHA2 (Homo sapiens, UniProt P29317)
T1 construct: purchased Thermo Fisher Scientific
Procedure, shortened: (§1)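 Readout is percentage kinase inhibition. Testing used 1 µM or 10 µM compound in externally run ZLyte/Adapta in vitro assays, and IC50 values were derived within the same panel.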

[2] = target: T2, NEK9 (Homo sapiens, UniProt Q8TD19)
T2 construct: purchased Thermo Fisher Scientific
T2 sequence (Q8TD19 1-979): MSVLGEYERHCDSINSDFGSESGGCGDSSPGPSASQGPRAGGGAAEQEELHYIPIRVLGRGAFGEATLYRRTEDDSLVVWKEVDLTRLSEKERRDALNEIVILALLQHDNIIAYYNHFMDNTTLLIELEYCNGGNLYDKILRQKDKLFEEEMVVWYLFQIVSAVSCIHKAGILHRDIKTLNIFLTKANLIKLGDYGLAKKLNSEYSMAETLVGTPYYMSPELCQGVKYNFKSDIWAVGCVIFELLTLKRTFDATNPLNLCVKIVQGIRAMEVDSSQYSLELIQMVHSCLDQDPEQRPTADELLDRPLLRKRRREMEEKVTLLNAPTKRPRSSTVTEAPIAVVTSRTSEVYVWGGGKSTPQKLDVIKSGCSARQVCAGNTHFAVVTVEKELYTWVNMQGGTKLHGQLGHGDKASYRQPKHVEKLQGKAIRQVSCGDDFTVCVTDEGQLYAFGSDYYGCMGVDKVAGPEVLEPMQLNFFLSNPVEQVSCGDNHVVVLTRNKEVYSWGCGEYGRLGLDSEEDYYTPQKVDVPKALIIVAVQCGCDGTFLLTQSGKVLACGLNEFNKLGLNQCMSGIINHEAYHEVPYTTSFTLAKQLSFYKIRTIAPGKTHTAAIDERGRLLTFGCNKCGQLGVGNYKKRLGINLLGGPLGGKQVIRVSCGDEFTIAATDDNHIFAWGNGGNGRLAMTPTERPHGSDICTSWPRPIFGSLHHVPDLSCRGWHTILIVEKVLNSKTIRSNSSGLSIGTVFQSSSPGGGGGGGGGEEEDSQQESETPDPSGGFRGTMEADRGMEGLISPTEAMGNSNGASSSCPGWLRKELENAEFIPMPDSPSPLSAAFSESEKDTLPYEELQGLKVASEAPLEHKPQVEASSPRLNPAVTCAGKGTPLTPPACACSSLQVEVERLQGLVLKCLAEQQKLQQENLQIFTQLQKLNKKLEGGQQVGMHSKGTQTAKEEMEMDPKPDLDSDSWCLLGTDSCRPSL
Procedure, shortened: as §1

[3] = target: T3, STK25 (YSK1) (Homo sapiens, UniProt O00506)
T3 construct: purchased Thermo Fisher Scientific
Procedure, shortened: as §1

[4] = target: T4, IKBKE (IKK epsilon) (Homo sapiens, UniProt Q14164)
T4 construct: purchased Thermo Fisher Scientific
T4 sequence (Q14164 1-716): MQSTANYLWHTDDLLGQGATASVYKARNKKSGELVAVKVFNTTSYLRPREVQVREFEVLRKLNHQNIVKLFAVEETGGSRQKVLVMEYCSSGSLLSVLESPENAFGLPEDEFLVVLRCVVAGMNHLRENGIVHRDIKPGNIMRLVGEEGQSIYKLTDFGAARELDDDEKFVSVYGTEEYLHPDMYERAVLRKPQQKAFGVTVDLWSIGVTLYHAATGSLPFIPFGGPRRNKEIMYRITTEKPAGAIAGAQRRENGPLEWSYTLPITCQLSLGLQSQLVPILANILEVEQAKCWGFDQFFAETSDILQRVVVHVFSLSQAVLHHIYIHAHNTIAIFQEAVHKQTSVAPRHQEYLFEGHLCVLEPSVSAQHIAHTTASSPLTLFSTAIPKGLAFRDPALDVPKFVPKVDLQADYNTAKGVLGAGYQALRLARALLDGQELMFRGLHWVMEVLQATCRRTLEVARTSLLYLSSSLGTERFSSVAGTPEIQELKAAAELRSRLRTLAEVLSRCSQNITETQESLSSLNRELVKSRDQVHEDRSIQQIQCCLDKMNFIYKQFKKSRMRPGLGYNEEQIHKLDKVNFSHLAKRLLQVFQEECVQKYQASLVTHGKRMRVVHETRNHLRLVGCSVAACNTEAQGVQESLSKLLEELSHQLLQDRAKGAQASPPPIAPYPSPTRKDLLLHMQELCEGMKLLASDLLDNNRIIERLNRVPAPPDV
Procedure, shortened: as §1

[5] = target: T5, PAK4 (Homo sapiens, UniProt O96013)
T5 construct: purchased Thermo Fisher Scientific
Procedure, shortened: as §1

[6] = target: T6, SNF1LK2 (Homo sapiens, UniProt Q9H0K1)
T6 construct: purchased Thermo Fisher Scientific
Procedure, shortened: as §1

T6 sequence (Q9H0K1 whole entry): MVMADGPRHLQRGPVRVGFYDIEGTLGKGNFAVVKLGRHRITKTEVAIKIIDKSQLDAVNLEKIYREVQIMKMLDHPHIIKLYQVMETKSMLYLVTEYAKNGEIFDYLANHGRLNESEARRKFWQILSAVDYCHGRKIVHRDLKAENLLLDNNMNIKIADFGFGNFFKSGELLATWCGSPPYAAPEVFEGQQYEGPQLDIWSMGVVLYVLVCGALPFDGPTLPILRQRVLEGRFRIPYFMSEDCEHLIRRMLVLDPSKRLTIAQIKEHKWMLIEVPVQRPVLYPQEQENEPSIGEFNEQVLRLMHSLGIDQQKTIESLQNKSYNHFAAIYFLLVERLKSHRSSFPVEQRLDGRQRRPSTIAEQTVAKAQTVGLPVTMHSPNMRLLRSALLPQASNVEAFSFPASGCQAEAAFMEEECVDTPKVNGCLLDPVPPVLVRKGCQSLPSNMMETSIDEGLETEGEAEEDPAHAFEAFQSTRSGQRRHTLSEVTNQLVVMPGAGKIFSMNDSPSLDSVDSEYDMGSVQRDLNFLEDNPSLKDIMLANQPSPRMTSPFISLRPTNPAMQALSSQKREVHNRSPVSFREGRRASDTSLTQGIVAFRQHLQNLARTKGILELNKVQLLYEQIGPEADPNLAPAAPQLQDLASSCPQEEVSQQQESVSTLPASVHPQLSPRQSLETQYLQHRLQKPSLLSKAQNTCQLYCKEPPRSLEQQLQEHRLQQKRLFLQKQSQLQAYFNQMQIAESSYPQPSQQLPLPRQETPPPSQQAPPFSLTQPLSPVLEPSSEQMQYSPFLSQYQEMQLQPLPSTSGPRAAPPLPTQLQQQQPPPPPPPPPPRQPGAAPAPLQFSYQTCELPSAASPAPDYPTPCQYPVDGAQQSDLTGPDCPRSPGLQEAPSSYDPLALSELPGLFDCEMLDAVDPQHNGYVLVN
T3 sequence (O00506 whole entry): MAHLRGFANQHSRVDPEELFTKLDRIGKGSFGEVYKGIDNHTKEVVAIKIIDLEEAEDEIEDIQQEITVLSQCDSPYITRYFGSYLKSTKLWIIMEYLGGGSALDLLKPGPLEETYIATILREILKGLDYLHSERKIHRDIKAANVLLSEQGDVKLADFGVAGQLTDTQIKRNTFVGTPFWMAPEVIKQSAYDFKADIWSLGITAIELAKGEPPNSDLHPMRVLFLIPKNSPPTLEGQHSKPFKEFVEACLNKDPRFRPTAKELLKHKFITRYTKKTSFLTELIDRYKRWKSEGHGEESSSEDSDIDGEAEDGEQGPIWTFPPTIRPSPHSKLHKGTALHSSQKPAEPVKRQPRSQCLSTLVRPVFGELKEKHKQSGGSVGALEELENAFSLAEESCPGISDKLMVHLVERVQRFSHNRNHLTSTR
T5 sequence (O96013 whole entry): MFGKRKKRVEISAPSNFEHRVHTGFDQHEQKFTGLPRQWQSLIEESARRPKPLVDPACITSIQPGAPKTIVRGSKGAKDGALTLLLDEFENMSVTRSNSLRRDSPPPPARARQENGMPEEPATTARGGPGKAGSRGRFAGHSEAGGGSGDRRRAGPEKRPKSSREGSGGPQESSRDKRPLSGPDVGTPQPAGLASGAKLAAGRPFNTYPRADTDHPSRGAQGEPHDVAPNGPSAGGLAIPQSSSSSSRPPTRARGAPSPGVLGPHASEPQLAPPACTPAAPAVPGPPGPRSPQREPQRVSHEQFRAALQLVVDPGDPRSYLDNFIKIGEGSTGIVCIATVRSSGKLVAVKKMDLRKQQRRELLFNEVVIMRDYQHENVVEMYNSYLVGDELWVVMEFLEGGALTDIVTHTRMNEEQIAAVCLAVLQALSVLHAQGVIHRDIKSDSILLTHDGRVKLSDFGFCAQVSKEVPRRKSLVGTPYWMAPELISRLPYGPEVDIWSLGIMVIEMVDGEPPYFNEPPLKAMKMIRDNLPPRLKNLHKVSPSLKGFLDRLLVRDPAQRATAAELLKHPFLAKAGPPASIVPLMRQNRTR
T1 sequence (P29317 24-976): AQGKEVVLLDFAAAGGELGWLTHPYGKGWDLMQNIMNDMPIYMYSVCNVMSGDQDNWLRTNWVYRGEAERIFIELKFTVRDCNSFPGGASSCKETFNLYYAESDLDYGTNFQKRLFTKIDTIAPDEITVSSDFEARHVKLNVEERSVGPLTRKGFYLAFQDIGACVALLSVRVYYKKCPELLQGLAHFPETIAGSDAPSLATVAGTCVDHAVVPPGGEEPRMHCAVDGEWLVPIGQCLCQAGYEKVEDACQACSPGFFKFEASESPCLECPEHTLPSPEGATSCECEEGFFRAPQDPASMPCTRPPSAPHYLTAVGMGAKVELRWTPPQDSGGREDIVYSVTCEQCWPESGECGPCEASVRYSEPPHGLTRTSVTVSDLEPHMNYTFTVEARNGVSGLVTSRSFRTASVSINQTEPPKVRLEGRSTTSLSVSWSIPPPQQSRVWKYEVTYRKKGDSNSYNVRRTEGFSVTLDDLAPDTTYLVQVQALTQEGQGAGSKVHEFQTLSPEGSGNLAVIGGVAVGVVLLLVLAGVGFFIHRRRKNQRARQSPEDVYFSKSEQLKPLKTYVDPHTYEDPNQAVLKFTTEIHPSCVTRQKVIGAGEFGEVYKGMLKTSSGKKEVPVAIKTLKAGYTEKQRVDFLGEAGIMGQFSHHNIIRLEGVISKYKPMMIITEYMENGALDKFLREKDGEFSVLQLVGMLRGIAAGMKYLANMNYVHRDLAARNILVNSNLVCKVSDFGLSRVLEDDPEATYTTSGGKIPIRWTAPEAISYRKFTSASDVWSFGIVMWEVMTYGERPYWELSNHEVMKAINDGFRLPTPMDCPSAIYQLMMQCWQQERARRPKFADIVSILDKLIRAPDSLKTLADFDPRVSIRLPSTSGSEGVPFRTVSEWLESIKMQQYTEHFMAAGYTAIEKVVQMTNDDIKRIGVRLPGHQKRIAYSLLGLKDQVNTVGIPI

| SMILES | inhibition at 1 µM [1] | inhibition at 10 µM [1] | inhibition at 1 µM [2] | inhibition at 10 µM [2] | inhibition at 1 µM [3] | inhibition at 10 µM [3] | inhibition at 1 µM [4] | inhibition at 10 µM [4] | inhibition at 1 µM [5] | inhibition at 10 µM [5] | inhibition at 1 µM [6] | inhibition at 10 µM [6] |
| --- | --- | --- | --- | --- | --- | --- | --- | --- | --- | --- | --- | --- |
| COc1ccc2c(c1OC)c(=O)n1c3ccc(O)cc3c3ccnc2c31 [MW01, 5-Hydroxy-10,11-dimethoxy-9H-benzo[c]indolo[3,2,1-ij][1,5]naphthyridin-9-one] | 6% | 14% | 4% | 9% | -9% | -3% | 11% | 17% | 13% | 20% | 5% | 12% |
| COc1ccc2cc3c(N)nn(C(=O)c4cccc(N(C)C)c4)c3nc2c1 [MW05, (3-Amino-7-methoxypyrazolo[3,4-b]quinolin-1-yl)-[3-(dimethylamino)phenyl]methanone] | 13% | -15% | 6% | 5% | -3% | -11% | 8% | 6% | 11% | 15% | 4% | -2% |
